Source: article PMC11513893, “Discovery of Oral Degraders of the ROS1 Fusion Protein with Potent Activity against Secondary Resistance Mutations” (Journal of Medicinal Chemistry, 2024)
“And” between values parts separate entries of the source, which are not always exact repeats. Equal values may be shown once.

What was measured:
ROS1 (G2101C) = ROS1 (G2101C) (Homo sapiens, UniProt P08922, G2101C); experiment: Kinase assay; format: biochemical; conditions: average of duplicate measurements
ROS1 (G2032R) [1] = target: ROS1 (G2032R) (Homo sapiens, UniProt P08922, G2032R); experiment: Kinase assay; format: biochemical; conditions: average of duplicate measurements
ROS1 (G2032R) [2] = experiment: Degradation assay (Western blot in treated cells); format: cell-based; conditions: average of duplicate measurements
Experimental: However, the degradation selectivity of 9o often contrasts with its kinase binding selectivity as determined in cells treated with 9o where the kinase level was measurable by Western blot analysis. […] For example, FLT3, CHEK2, and FES, all with kinase binding at <10 nM, were only moderately or minimally degraded, if at all (Table 9).
Protein levels were analyzed using a WES instrument according to the WES User Guide from ProteinSimple in duplicate experiments. The samples were mixed with the fluorescent 5 master mix (ProteinSimple) and then heated at 95 °C for 5 min. Boiled samples, biotinylated protein ladder, antibody diluent, Streptavidin-HRP, primary antibodies, ProteinSimple horseradish peroxidase conjugated antirabbit or antimouse secondary antibodies, luminol-peroxide, and wash buffer were loaded into the WES plate (Wes 12–230 kDa Prefilled Plates with Split Buffer, ProteinSimple). The plates and capillary cartridges were loaded into the WES instrument, and protein separation, antibody incubation, and imaging were performed according to manufacturer’s instructions. Compass software (ProteinSimple) was used to acquire the data and to generate the virtual blot image reconstruction and chemiluminescence signal intensity electropherograms. […] Protein levels are expressed as the AUC of the peak chemiluminescence intensity. […]

CAMK2D = CAMK2D (Homo sapiens, UniProt Q13557); experiment: Kinase assay; format: biochemical; conditions: average of duplicate measurements
CAMK2D, sequence (Q13557 whole entry, species assumed): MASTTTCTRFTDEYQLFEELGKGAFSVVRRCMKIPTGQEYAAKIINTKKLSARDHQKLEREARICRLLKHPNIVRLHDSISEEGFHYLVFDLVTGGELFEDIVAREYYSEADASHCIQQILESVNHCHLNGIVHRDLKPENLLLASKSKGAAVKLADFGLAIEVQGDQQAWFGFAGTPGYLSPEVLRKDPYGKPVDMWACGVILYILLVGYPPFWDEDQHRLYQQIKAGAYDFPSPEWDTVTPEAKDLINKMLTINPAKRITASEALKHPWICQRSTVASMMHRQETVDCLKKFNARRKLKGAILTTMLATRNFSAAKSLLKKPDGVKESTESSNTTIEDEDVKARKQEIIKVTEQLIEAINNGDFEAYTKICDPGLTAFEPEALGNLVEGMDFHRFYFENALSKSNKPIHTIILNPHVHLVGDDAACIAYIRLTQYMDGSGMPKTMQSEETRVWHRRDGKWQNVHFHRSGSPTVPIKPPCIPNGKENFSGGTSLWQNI

H2228 cells = experiment: Whole cell proteomic analysis; format: cell-based, human; conditions: 100 nM, 24 h
Experimental: To minimize the effect of signaling blockade on proteomic changes, we decided that a more accurate quantitative determination of proteomic alterations would be to compare degrader-treated to inhibitor-treated.
Cell pellets were dissolved in 1 mL of RIPA buffer, 10 μL of phosphatase inhibitor, and 10 μL of protease inhibitor. Proteins were extracted and concentration was determined by the BCA assay. The protein samples were digested with sequencing grade modified trypsin (Promega Corp; Madison, WI) according to the manufacturer’s instructions. The peptides were labeled using the TMT Isobaric Mass Tagging kit (Thermo Fisher Scientific; # 90,060–90,061; Waltham, MA). The labeled peptide aliquots were then pooled together for subsequent fractionation and analysis. The TMT-labeled peptide mixtures were separated by an automated Easy-nLC1000 system coupled with a Q-Exactive spectrometer (Thermo Finnigan, Waltham, MA). The identification of proteins was performed using Proteome Discoverer software v2.3 (Thermo Fisher Scientific; Waltham, MA) and Mascot v2.6 (Matrix Science, Boston, MA), based on “Uniprot Human” database. The proteins that were identified on the basis of at least one unique peptide were included in the data. The ratios of TMT reporter ion abundance in 9o-treated cells and inhibitor-treated cells were used to calculate protein relative abundance.

[3] = system: Ba/F3 ROS1 (SLC34A2) G2032R; experiment: Antiproliferation assay; format: cell-based; conditions: Mus musculus, BaF3; Ba/F3 cell line
Ba/F3 ROS1 (SLC34A2) = experiment: Antiproliferation assay; format: cell-based; conditions: Mus musculus, BaF3; Ba/F3 cell line
[4] = Metabolic stability in human microsomes; format: in vitro ADME; conditions: human, pooled human microsomes, pH 7.4, 250 nM compound, NADPH, 37 °C
Experimental: Pooled human and rat microsomes were prepared and stored at −80 °C prior to use. A master-mix containing microsome, phosphate buffer, and test compound (9 series) solution was made as follows: (1) 3 μL of microsome (20 mg/mL) was diluted with mixed 30 μL of potassium phosphate buffer (pH 7.4; 10×) and 246 μL of water; (2) 3 μL of 25 μM drug solution was added to the microsome; (3) the master solution was prewarmed at 37 °C for 5 min. NADPH solution A (15 μL) and NADPH solution B (3 μL) from Promega were added to the above-mentioned master solution to initiate the reaction. The final concentration of 9 compounds in the reaction system was 250 nM. An aliquot of 20 μL was pipetted from the reaction solution and stopped by the addition of 180 μL of cold MeCN containing 25 ng of Tamoxifen-(N,N-dimethyl-13C2)-15N as an internal standard at the designated time points (0, 5, 15, 30, 45, and 60 min). The incubation solution was vortexed-mixed (800 rpm/10 min) and centrifuged at 3500 rpm for 10 min to precipitate proteins. The supernatant was collected and used for the LC/MS/MS analysis. The natural log of the remaining percentage of the test compound was plotted against time and the gradient of the line was determined.

BRK (PTK6) = BRK (PTK6) (Homo sapiens, UniProt Q13882); experiment: Kinase assay; format: biochemical; conditions: average of duplicate measurements
BRK (PTK6), sequence (Q13882 whole entry, species assumed): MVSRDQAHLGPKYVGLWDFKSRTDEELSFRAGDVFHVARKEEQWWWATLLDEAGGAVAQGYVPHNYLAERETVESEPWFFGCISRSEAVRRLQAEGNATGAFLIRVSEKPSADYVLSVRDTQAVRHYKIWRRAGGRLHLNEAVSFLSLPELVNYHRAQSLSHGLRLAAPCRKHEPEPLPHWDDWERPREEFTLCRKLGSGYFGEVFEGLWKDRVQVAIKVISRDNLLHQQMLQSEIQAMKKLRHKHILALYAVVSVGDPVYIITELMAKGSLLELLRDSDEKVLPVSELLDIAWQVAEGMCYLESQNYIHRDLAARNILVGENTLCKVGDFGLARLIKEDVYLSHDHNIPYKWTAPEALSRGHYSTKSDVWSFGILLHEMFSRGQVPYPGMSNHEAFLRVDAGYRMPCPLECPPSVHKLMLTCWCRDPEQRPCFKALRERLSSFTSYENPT

Log P measurement = format: physicochemical
From the text: An important physicochemical property for a PROTAC molecule is its lipophilicity that largely dictates its pharmaceutical performance such as absorption, permeability, and distribution.

FLT3 = FLT3 (Homo sapiens, UniProt P36888); experiment: Kinase assay; format: biochemical; conditions: average of duplicate measurements
FLT3, sequence (P36888 27-993, species assumed): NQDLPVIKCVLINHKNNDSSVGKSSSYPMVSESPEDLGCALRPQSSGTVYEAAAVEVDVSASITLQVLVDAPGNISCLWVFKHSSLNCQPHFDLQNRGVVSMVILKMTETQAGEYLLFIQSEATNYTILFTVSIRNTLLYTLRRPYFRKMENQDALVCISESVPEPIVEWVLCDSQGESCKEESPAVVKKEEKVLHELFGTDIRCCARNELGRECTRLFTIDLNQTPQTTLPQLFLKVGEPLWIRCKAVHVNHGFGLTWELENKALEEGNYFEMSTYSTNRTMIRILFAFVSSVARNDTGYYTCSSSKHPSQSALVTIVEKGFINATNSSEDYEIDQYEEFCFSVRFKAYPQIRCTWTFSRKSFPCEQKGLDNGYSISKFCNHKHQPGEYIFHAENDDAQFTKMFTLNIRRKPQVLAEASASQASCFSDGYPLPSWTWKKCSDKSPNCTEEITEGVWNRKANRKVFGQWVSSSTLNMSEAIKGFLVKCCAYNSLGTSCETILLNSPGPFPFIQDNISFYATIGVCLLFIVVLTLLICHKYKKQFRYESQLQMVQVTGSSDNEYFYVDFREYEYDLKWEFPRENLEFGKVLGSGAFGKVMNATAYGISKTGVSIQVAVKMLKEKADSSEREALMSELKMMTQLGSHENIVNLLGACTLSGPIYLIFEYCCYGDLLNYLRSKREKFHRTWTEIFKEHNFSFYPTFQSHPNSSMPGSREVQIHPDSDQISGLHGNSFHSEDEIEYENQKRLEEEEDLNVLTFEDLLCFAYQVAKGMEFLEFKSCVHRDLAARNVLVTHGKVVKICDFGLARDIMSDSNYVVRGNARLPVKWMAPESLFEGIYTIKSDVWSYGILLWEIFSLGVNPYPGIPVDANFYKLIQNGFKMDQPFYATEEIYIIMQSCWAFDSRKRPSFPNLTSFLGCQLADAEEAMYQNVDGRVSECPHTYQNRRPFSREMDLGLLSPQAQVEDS

ERBB4/HER4 = ERBB4/HER4 (Homo sapiens, UniProt Q15303); experiment: Kinase assay; format: biochemical; conditions: average of duplicate measurements
ERBB4/HER4, sequence (Q15303 26-1308): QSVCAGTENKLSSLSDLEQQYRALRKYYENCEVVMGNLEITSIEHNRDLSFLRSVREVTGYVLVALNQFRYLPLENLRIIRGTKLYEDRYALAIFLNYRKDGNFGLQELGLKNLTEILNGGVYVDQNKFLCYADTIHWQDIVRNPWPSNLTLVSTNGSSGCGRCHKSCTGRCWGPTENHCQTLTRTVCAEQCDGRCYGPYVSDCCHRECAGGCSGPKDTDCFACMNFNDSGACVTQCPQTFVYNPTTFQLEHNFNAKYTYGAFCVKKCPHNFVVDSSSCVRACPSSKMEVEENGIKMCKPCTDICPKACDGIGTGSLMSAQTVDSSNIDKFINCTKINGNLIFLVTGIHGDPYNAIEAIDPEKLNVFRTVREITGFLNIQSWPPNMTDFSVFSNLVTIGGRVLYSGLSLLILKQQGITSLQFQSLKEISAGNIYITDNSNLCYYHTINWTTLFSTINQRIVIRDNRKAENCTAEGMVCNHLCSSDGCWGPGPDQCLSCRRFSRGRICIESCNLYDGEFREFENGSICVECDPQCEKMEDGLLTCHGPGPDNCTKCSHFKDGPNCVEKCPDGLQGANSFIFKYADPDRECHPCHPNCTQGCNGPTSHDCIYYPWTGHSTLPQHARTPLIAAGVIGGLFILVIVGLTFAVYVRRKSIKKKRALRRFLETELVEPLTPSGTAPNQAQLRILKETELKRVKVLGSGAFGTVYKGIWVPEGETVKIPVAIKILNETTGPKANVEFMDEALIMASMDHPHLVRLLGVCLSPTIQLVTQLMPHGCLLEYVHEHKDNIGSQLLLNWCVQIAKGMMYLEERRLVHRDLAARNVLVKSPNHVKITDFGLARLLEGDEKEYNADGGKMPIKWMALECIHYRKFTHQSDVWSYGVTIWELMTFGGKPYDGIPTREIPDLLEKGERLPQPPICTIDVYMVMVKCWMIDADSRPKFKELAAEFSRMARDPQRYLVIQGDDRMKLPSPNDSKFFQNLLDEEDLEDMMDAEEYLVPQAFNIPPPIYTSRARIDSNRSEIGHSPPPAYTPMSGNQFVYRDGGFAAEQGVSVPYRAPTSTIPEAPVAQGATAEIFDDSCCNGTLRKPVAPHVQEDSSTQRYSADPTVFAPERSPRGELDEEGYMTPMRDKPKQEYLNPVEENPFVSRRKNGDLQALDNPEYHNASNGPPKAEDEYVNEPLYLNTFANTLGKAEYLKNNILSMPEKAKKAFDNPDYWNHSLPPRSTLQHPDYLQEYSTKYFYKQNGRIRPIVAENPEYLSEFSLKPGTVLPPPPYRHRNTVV

PTK2B = PTK2B (Homo sapiens, UniProt Q14289); experiment: Kinase assay; format: biochemical; conditions: average of duplicate measurements
PTK2B, sequence (Q14289 whole entry, species assumed): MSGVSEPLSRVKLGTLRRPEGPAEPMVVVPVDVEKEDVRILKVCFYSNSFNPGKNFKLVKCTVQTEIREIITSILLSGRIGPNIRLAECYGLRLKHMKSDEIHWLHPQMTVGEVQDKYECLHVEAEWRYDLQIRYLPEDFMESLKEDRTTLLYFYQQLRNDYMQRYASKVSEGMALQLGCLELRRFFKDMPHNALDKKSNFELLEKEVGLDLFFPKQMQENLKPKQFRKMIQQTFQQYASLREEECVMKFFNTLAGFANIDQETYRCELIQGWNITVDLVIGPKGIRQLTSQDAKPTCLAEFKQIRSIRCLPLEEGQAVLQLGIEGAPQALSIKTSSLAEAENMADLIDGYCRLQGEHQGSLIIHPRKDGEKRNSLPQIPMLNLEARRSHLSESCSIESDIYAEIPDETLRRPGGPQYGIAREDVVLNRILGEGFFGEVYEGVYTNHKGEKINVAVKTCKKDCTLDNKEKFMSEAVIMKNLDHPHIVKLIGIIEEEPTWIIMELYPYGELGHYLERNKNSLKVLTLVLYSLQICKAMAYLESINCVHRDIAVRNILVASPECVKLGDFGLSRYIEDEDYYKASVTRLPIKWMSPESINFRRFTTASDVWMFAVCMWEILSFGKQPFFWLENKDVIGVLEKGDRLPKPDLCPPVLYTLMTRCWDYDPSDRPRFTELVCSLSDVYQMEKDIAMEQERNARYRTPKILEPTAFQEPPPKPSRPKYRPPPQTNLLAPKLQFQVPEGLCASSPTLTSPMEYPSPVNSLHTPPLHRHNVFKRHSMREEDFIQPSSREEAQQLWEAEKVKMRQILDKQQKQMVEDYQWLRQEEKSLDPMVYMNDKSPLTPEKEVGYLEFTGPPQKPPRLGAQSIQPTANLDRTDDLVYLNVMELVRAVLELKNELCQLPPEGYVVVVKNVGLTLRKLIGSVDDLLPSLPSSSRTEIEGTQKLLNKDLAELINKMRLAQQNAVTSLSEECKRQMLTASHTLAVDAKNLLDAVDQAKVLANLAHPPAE

ROS1 (L2086F) = ROS1 (L2086F) (Homo sapiens, UniProt P08922, L2086F); experiment: Kinase assay; format: biochemical; conditions: average of duplicate measurements

IC50 (ROS1 (G2101C)): 83 nM
IC50 (ROS1 (G2032R) [1]): 161 nM
DC50 (ROS1 (G2032R) [2]): 13.2 nM
IC50 (CAMK2D): 39 nM
IC50 [3]: 6.3 ± 1.1 nM
IC50 (Ba/F3 ROS1 (SLC34A2)): 1.1 ± 0.4 nM
microsomal CLint at 1 h, 0.25 µM [4]: 71.1 µL/min/mg
half-life at 1 h, 0.25 µM ([4]; read-out: metabolic stability in human microsomes T1/2): 48.8 min
IC50 (BRK (PTK6)): 76 nM
logP (Log P measurement): 2.54
IC50 (FLT3): < 10 nM and 3.5 nM
IC50 (ERBB4/HER4): 27 nM
IC50 (PTK2B): 34 nM
IC50 (ROS1 (L2086F)): 218 nM
SMILES: COc1cc(N2CCC(N3CCN(CC4CCN(c5ccc6c(c5)CN(C5CCC(=O)NC5=O)C6=O)CC4)CC3)CC2)ccc1Nc1ncc(Cl)c(Nc2ccccc2P(C)(C)=O)n1 (stereo not drawn) [9o, 3-(5-(4-((4-(1-(4-((5-Chloro-4-((2-(dimethylphosphoryl)phenyl)amino)pyrimidin-2-yl)amino)-3-methoxyphenyl)piperidin-4-yl)piperazin-1-yl)methyl)piperidin-1-yl)-1-oxoisoindolin-2-yl)piperidine-2,6-dione]
kinases significantly degraded (proteomics, degrader-treated vs brigatinib-treated) (H2228 cells): only three kinases were significantly degraded
